Test results taken from patent US12162888B2, “Carboxamides as ubiquitin-specific protease inhibitors” (Valo Early Discovery, Inc., priority 2018, dated 2024).

What follows are compounds tested against T1, USP25 (USP25-His6, Boston Biochem E-546) (Homo sapiens, UniProt Q9UHP3) (assay: Ubiquitin-Rhodamine 110 Assay for USP25 Activity, Example A-3). Details: Ubiquitin-Rhodamine 110 assay, Example A-3; IC50 ranges; read-out: USP25 A-3 IC50.
T1 construct: His6 (C); purchased Boston Biochem E-546
T1 sequence (Q9UHP3 1-1055): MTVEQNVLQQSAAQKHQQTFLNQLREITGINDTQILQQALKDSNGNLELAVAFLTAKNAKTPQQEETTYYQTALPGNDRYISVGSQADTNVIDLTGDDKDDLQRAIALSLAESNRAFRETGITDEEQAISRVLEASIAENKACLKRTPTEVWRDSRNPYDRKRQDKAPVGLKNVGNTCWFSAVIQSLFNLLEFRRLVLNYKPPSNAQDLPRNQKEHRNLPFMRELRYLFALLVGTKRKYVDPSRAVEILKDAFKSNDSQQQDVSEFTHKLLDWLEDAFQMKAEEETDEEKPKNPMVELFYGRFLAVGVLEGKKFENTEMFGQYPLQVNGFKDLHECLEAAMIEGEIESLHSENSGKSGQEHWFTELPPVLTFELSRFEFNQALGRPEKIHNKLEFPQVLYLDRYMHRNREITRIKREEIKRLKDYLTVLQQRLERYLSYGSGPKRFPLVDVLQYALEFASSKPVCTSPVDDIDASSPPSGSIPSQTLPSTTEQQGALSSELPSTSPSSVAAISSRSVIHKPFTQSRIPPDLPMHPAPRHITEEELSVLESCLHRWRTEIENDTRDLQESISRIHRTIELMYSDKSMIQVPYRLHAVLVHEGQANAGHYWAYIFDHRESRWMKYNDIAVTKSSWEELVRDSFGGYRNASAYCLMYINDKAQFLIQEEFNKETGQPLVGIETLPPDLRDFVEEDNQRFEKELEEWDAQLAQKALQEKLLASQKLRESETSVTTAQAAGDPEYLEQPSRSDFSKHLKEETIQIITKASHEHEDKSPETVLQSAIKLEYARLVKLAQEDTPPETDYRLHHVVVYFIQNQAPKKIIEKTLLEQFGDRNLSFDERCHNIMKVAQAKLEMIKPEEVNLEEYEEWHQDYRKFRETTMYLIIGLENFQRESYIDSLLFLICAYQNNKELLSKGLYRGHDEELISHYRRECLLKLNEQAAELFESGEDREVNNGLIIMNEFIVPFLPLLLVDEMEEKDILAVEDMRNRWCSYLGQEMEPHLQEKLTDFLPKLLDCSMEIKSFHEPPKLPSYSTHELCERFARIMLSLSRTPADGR
Assay type: biochemical
In short: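 USP25-His6 ([…] final as stated) preincubated 30 min with compound (10-point, 25 μM to 1.3 nM), then Ub-Rh110 at 25 nM (<<Km) added in pH 8.0 Tris buffer with BME, BGG and Triton X-100. Reaction stopped after 45 min at room temperature with 10 mM citric acid; fluorescence read at 485/535 nm.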

SMILES	IC50 [nM]
N#Cc1c(N2CC3CCC(C2)N3)cc(F)c2c1OC[C@H](NC(=O)c1cnc3c(c1)[C@@H]1CC1CN3)C2 (stereo partly drawn) [Example 228, (6aS,7aR)-N-[(3R)-8-cyano-7-(3,8-diazabicyclo[3.2.1]octan-3-yl}-5-fluoro-3,4-dihydro-2H-1-benzopyran-3-yl]-5H,6H,6aH,7H,7aH-cyclopropa[c]1,8-naphthyridine-2-carboxamide]	200 to 2000

Same assay, conditions: Ubiquitin-Rhodamine 110 assay, Example A-3; read-out: USP25 A-3 IC50 range

SMILES	IC50 [nM]
CO[C@H]1CN(c2cc(F)c3c(c2C#N)CC[C@H](NC(=O)c2sc4nc(C)ccc4c2N)C3)C[C@@H]1N (single isomer, unassigned) [Example 14-23]	200 to 2000
Cc1nc2sc(C(=O)N[C@H]3CCc4c(C#N)c(N5CCNCC5)cc(F)c4C3)c(N)c2s1 (single isomer, unassigned) [Example 14-14]	200 to 2000
CN[C@H]1CCN(c2ccc3c(c2)CC[C@@H](NC(=O)c2sc4nc(C)cnc4c2N)C3)C1 (single isomer, unassigned) [Example 11-26]	> 2000
Cc1ccc2c(N)c(C(=O)N[C@@H]3CCc4c(C#N)c(N5CCNCC5)cc(F)c4C3)sc2n1 (single isomer, unassigned) [Example 14-9]	> 2000
Cc1cnc2c(N)c(C(=O)N[C@H]3CCc4c(ccc(N5CCNCC5)c4F)C3)sc2n1 (single isomer, unassigned) [Example 21-10]	> 2000
Cc1ccc2c(N)c(C(=O)N[C@H]3CCc4nc(N5C[C@H](N)[C@@]6(CCOC6)C5)ccc4C3)sc2n1 [Example 437, 3-amino-N-[(6S)-2-[(5R,9R)-9-amino-2-oxa-7-azaspiro[4.4]nonan-7-yl]-5,6,7,8-tetrahydroquinolin-6-yl]-6-methylthieno[2,3-b]pyridine-2-carboxamide]	> 2000
CO[C@H]1CN(c2ccc3c(c2)OC[C@H](NC(=O)c2sc4nc(C)cnc4c2N)C3)C[C@@H]1N [Example 117]	200 to 2000
CN[C@H]1CN(c2ccc3c(n2)CC[C@H](NC(=O)c2sc4nc(C)ccc4c2N)C3)C[C@H]1CF [Example 441, 3-amino-N-[(6S)-2-[(3R,4R)-3-(fluoromethyl)-4-(methylamino)pyrrolidin-1-yl]-5,6,7,8-tetrahydroquinolin-6-yl]-6-methylthieno[2,3-b]pyridine-2-carboxamide]	> 2000
Cc1ccc2c(N)c(C(=O)N[C@@H]3CCc4cc(N5CCNCC5)ccc4C3)sc2n1 (single isomer, unassigned) [Example 11-22]	200 to 2000
Cc1ccc2c(N)c(C(=O)N[C@H]3COc4cc(N5CCNCC5)ccc4[C@@H]3C)sc2n1 (single isomer, unassigned) [Example 11-17]	> 2000
Cc1ccc2c(N)c(C(=O)N[C@H]3CCc4c(C#N)c(N5CC6CNCC(C5)O6)cc(F)c4C3)sc2n1 (single isomer, unassigned) [Example 14-15]	1 to 50
Cc1nc2sc(C(=O)N[C@@H]3CCc4cc(N5CCNCC5)ccc4C3)c(N)c2s1 (single isomer, unassigned) [Example 11-34]	> 2000
CCn1ccc2cc(C(=O)N[C@H]3CCc4nc(N5C[C@@H](COC)[C@@H](N)C5)ccc4C3)cnc21 (single isomer, unassigned) [Example 400]	> 2000
Cc1ccc2c(N)c(C(=O)N[C@H]3CCc4nc(N5C[C@@H](N)[C@]6(CCOC6)C5)ccc4C3)sc2n1 [Example 438, 3-amino-N-[(6S)-2-[(5S, 9S)-9-amino-2-oxa-7-azaspiro[4.4]nonan-7-yl]-5,6,7,8-tetrahydroquinolin-6-yl]-6-methylthieno[2,3-b]pyridine-2-carboxamide]	> 2000
Cc1ccc2c(N)c(C(=O)N[C@H]3CCc4c(C#N)c(N5CCNCC5)cc(F)c4C3)sc2n1 (single isomer, unassigned) [Example 14-10]	200 to 2000
Cc1cnc2c(N)c(C(=O)N[C@@H]3CCc4cc(N5C[C@@H]6C[C@H]5CN6)ccc4C3)sc2n1 (single isomer, unassigned) [Example 11-30]	200 to 2000
Cc1cnc2c(N)c(C(=O)N[C@@H]3CCc4cc(N5CCNCC5)cc(F)c4C3)sc2n1 (single isomer, unassigned) [Example 11-37]	> 2000
CN[C@@H]1CCN(c2ccc3c(c2)CC[C@@H](NC(=O)c2sc4nc(C)cnc4c2N)C3)C1 (single isomer, unassigned) [Example 11-28]	> 2000
Cc1ccc2c(N)c(C(=O)N[C@@H]3COc4cc(N5CCNCC5)ccc4[C@@H]3C)sc2n1 (single isomer, unassigned) [Example 11-18]	200 to 2000
Cc1cnc2c(N)c(C(=O)N[C@@H]3CCc4c(C#N)c(N5CCNCC5)cc(F)c4C3)sc2n1 (single isomer, unassigned) [Example 14-11]	200 to 2000
Cc1ccc2c(N)c(C(=O)N[C@H]3CCc4c(C#N)c(N5CC6CCC(C5)N6)cc(F)c4C3)sc2n1 (single isomer, unassigned) [Example 14-17]	1 to 50
Cc1ccc2c(N)c(C(=O)N[C@H]3CCc4c(F)c(N5CC6CCC(C5)N6)cc(F)c4C3)sc2n1 (single isomer, unassigned) [Example 22-5]	1 to 50
Cc1cnc2c(N)c(C(=O)N[C@H]3CCc4cc(N5CCNCC5)ccc4C3)sc2n1 (single isomer, unassigned) [Example 11-19]	200 to 2000
CN[C@@H]1CCN(c2ccc3c(c2)CC[C@H](NC(=O)c2sc4nc(C)cnc4c2N)C3)C1 (single isomer, unassigned) [Example 11-27]	200 to 2000

Same assay, conditions: biochemical IC50 range, Ubiquitin-Rhodamine 110 assay, Example A-3; read-out: USP25 A-3

SMILES	IC50 [nM]
CN[C@@H]1CN(c2ccc3c(c2)OC[C@H](NC(=O)c2sc4nc(C)ccc4c2N)C3)C[C@H]1CF [Example 663, 3-amino-N-[(3R)-7-[(3R,4S)-3-(fluoromethyl)-4-(methylamino)pyrrolidin-1-yl]-3,4-dihydro-2H-1-benzopyran-3-yl]-6-methylthieno[2,3-b]pyridine-2-carboxamide]	50 to 200
Cc1ccc2c(N)c(C(=O)N[C@H]3COc4cc(N5C[C@@H]6CCNC[C@@H]65)cc(F)c4C3)sc2n1 [Example 665, 3-amino-N-[(3R)-7-[(1R,6S)-3,8-diazabicyclo[4.2.0]octan-8-yl]-5-fluoro-3,4-dihydro-2H-1-benzopyran-3-yl]-6-methylthieno[2,3-b]pyridine-2-carboxamide]	50 to 200
Cc1ccc2c(N)c(C(=O)N[C@H]3COc4cc(N5C[C@H](N)[C@](C)(CF)C5)ccc4C3)sc2n1 [Example 658, 3-amino-N-[(3R)-7-[(3R,4R)-4-amino-3-(fluoromethyl)-3-methylpyrrolidin-1-yl]-3,4-dihydro-2H-1-benzopyran-3-yl]-6-methylthieno[2,3-b]pyridine-2-carboxamide]	50 to 200
CO[C@@H]1CN(c2ccc3c(c2)OC[C@H](NC(=O)c2sc4nc(C)cnc4c2N)C3)C[C@@H]1N [Example 147, 7-amino-N-[(3R)-7-[(3S,4R)-3-amino-4-methoxypyrrolidin-1-yl]-3,4-dihydro-2H-1-benzopyran-3-yl]-3-methylthieno[2,3-b]pyrazine-6-carboxamide]	200 to 2000
Cc1ccc2c(N)c(C(=O)N[C@H]3COc4cc(N5C[C@H](N)[C@]6(CCOC6)C5)ccc4C3)sc2n1 [Example 656, 3-amino-N-[(3R)-7-[(5S,9R)-9-amino-2-oxa-7-azaspiro[4.4]nonan-7-yl]-3,4-dihydro-2H-1-benzopyran-3-yl]-6-methylthieno[2,3-b]pyridine-2-carboxamide]	200 to 2000
Cc1ccc2c(N)c(C(=O)N[C@H]3CCc4cc(N5C[C@H](CF)[C@H](N)C5)ccc4C3)sc2n1 [Example 657, 3-amino-N-[(2S)-6-[(3S,4S)-3-amino-4-(fluoromethyl)pyrrolidin-1-yl]-1,2,3,4-tetrahydronaphthalen-2-yl]-6-methylthieno[2,3-b]pyridine-2-carboxamide]	200 to 2000
O=C(N[C@H]1COc2cc(N3CCNCC3)ccc2C1)c1ccc(NCc2ccc(Cl)cc2Cl)nc1 [Example 697, 6-{[(2,4-dichlorophenyl)methyl]amino}-N-[(3R)-7-(piperazin-1-yl)-3,4-dihydro-2H-1-benzopyran-3-yl]pyridine-3-carboxamide]	1 to 50
Cc1ccc2c(N)c(C(=O)N[C@H]3CCc4c(F)c(N5CC6CCC(C5)N6)cc(F)c4C3)sc2n1 (single isomer, unassigned) [Example 603]	1 to 50
